Reference: US20220098197A1, “SALTS OF HETEROCYCLIC COMPOUND AND USE THEREOF” (priority 2019, published 2022)

Columns and labels:
CS-induced ALI mice = assay: CS-induced lung injury model: pulmonary histopathology (H&E); assay type: in vivo, Balb/c mice
Description: Model preparation: The mice were randomly divided into 5 groups (12 mice in each group), which were the control group (the mice were exposed to fresh air), the saline group (the mice were exposed to cigarette smoke), dexamethasone (Dex) group (1 mg/kg) (the mice were exposed to cigarette smoke), CT-NA 10 mg/kg group and CT-NA 30 mg/kg group (the mice were exposed to cigarette smoke). According to the grouping, the mice were intragastrically administered saline, Dex and CT-NA, respectively. Thereafter, the mice were exposed to fresh air or cigarette smoke generated from 3R4F research-grade cigarettes (containing about 600 mg TPM/m^3 and 29.9 mg nicotine/m^3) in a cuboid plastic box (65×50x×45 cm). Ten cigarettes were burned every day for seven days. After one cigarette was burned, the next cigarette was ignited. The daily body weight and general condition of the mice were checked. 24 hrs after the last exposure to the cigarette smoke, the partial pressure of oxygen (PO2) of all mice was measured by the Moor VMS-OXY™ measuring instrument, which was used to measure the oxygenated/deoxygenated hemoglobin concentration and oxygen saturation (percentage) in the microcirculation at the wavelength range of 500 to 650 nm. Then, all mice were euthanized to collect bronchoalveolar lavage fluid (BALF) for measuring the total number of inflammatory cells, cytokine levels and albumin concentration. […]

RAW 264.7 macrophages = assay: In vitro cytokines mRNA by RT-PCR, CSE- and PGD2-stimulated macrophages; assay type: cell-based, mouse; details: CT-NA 10 and 100 μM, p<0.01
Description: The cigarette smoke generated from 3R4F research grade cigarettes was passed through 50 ml PBS by a vacuum pump. Five cigarettes were used to make smoke that passed 50 ml PBS, and each cigarette was lit for 5 minutes. The control solution was prepared in the absence of cigarettes by using a similar method. After extraction, CSE was stored at −80° C.
RAW 264.7 macrophages were added to two 12-well plates. Thereafter, the medium of the 12-well plate was replaced with serum-free RPMI-1640 medium, and the macrophages were incubated for 10-12 hrs and then exposed to CT-NA (10 and 100 μM) for 1 hour. One hour later, one 12-well plate was treated with CSE (4%) and the other with PGD2 (10 μM) for 24 hrs. After the treatment, the supernatant of the treated cells was collected to measure the protein levels of TNF-α, IL-1β, IL-6, KC and IL-10 extracellularly secreted using ELISA kits according to the method of the instructions. Subsequently, RNA samples from each treated plate were extracted and reverse-transcripted into cDNA with HiScript5xQRTSuperMix, and then subjected to RT-PCR. RT-PCR was performed with the BioRad CFX96 Touch™ Real-Time PCR Detection System (BioRad, USA) using AceQ® qPCR SYBR Green Master Mix. And the threshold cycle numbers were obtained using BioRad CFX Manager Software. The primers used for RT-PCR reaction were shown in Table 1. β-actin was used as an internal control. The RT-PCR reactions were triplicated and the relative expression of target mRNA was normalized by the respective β-actin.

SMILES: CN([C@@H]1CCc2c(CC(=O)[O-])c3cccnc3n2C1)S(=O)(=O)c1ccc(F)cc1.[Na+] [Sodium salt hydrate]
- mean pathological scores (CS-induced ALI mice; CT-NA 10 and 30 mg/kg, Dex 1 mg/kg, 5-point scoring, dose-dependent, p<0.01): considerably reduced
- CS-induced pulmonary histopathological changes (CS-induced ALI mice; pretreatment with CT-NA 10 and 30 mg/kg or Dex 1 mg/kg, H&E): strikingly improved
- mRNA levels of IL-1β, IL-6, TNF-α and KC, CSE-stimulated (RAW 264.7 macrophages; CSE (4%) 24 hrs): inhibited
- CSE-induced inhibition of IL-10, mRNA (RAW 264.7 macrophages; CSE (4%), dose-dependent): reversed
- mRNA levels of IL-1β, IL-6, TNF-α and KC, PGD2-stimulated (RAW 264.7 macrophages; PGD2 (10 μM) 24 hrs): inhibited
- PGD2-induced inhibition of IL-10, mRNA (RAW 264.7 macrophages; PGD2 (10 μM), dose-dependent): reversed
